The values that follow come from paper PMC5218480 (PLoS ONE, 2017).

The assay concerns MV-4-11 cells. Description: Gene expression microarray analysis (Affymetrix PrimeView) and GSEA. More on the design: RFU PODN (11730768_x_at) / Fold change /veh PODN (11730768_x_at) / RFU LINC00158 (11744669_a_at) / Fold change /veh LINC00158 (11744669_a_at) / RFU DUSP10 (11751237_a_at) / Fold change /veh DUSP10 (11751237_a_at) / RFU ID3 (11757404_x_at) / Fold change /veh ID3 (11757404_x_at) / RFU PLEKHG5 (11737974_s_at) / Fold change /veh PLEKHG5 (11737974_s_at) / RFU LRRC4B (11730491_at) / Fold change /veh LRRC4B (11730491_at) / RFU GIMAP4 (11747438_a_at) / Fold change /veh GIMAP4 (11747438_a_at) / RFU KRT8 (11758183_x_at) / Fold change /veh KRT8 (11758183_x_at) / RFU CNN1 (11734310_a_at) / Fold change /veh CNN1 (11734310_a_at) / RFU VPS37D (11726825_at) / Fold change /veh VPS37D (11726825_at) / RFU C10orf10 (11716522_x_at) / Fold change /veh C10orf10 (11716522_x_at) / RFU KIR2DL2 /// KIR2DL4 /// KIR2DL5A /// KIR2DL5B /// KIR2DS1 /// KIR2DS2 /// KIR2DS3 /// KIR2DS4 /// KIR3DL3 /// KIR3DL3 /// KIR3DS1 (11738374_at) / Fold change /veh KIR2DL2 /// KIR2DL4 /// KIR2DL5A /// KIR2DL5B /// KIR2DS1 /// KIR2DS2 /// KIR2DS3 /// KIR2DS4 /// KIR3DL3 /// KIR3DL3 /// KIR3DS1 (11738374_at) / RFU C1QL1 (11718748_at) / Fold change /veh C1QL1 (11718748_at) / RFU TMPRSS4 (11747572_a_at) / Fold change /veh TMPRSS4 (11747572_a_at) / RFU HAMP (11756126_x_at) / Fold change /veh HAMP (11756126_x_at) / RFU RNFT2 (11725882_a_at) / Fold change /veh RNFT2 (11725882_a_at) / RFU NR4A2 (11747474_a_at) / Fold change /veh NR4A2 (11747474_a_at) / RFU ABCC12 (11746883_a_at) / Fold change /veh ABCC12 (11746883_a_at) / RFU TMEM136 (11760407_x_at) / Fold change /veh TMEM136 (11760407_x_at) / RFU CLDN22 /// WWC2 (11732394_at) / Fold change /veh CLDN22 /// WWC2 (11732394_at) / RFU HLA-DPB1 (11760878_x_at) / Fold change /veh HLA-DPB1 (11760878_x_at) / RFU SPINT1 (11716480_a_at) / Fold change /veh SPINT1 (11716480_a_at) / RFU GAP43 (11754022_s_at) / Fold change /veh GAP43 (11754022_s_at) / RFU A4GNT (11735810_at) / Fold change /veh A4GNT (11735810_at) / RFU PRB3 (11715151_x_at) / Fold change /veh PRB3 (11715151_x_at) / RFU TUBB4B (11761932_at) / Fold change /veh TUBB4B (11761932_at) / RFU CAPN14 (11732068_a_at) / Fold change /veh CAPN14 (11732068_a_at) / RFU TMCC2 (11721928_a_at) / Fold change /veh TMCC2 (11721928_a_at) / RFU IRGQ (11745062_a_at) / Fold change /veh IRGQ (11745062_a_at) / RFU FAM174B (11720279_a_at) / Fold change /veh FAM174B (11720279_a_at) / RFU TMPRSS4 (11748680_a_at) / Fold change /veh TMPRSS4 (11748680_a_at) / RFU FAM212B (11763350_a_at) / Fold change /veh FAM212B (11763350_a_at) / RFU PLEKHG5 (11743358_a_at) / Fold change /veh PLEKHG5 (11743358_a_at) / RFU ZSCAN30 (11745921_a_at) / Fold change /veh ZSCAN30 (11745921_a_at) / RFU CMKLR1 (11741424_a_at) / Fold change /veh CMKLR1 (11741424_a_at) / RFU LOC101060620 /// MAPK8IP1 (11723275_at) / Fold change /veh LOC101060620 /// MAPK8IP1 (11723275_at) / RFU SPTSSB (11747773_x_at) / Fold change /veh SPTSSB (11747773_x_at) / RFU PRSS12 (11739890_at) / Fold change /veh PRSS12 (11739890_at) / RFU BIN1 (11741810_x_at) / Fold change /veh BIN1 (11741810_x_at) / RFU WNT11 (11732464_a_at) / Fold change /veh WNT11 (11732464_a_at) / RFU C10orf10 (11716521_a_at) / Fold change /veh C10orf10 (11716521_a_at) / RFU C5orf56 (11738089_at) / Fold change /veh C5orf56 (11738089_at) / RFU CYB561 (11721691_x_at) / Fold change /veh CYB561 (11721691_x_at) / RFU ANKRD19P (11752326_a_at) / Fold change /veh ANKRD19P (11752326_a_at) / RFU OR2T12 /// OR2T33 /// OR2T8 (11738714_s_at) / Fold change /veh OR2T12 /// OR2T33 /// OR2T8 (11738714_s_at) / RFU VCAN (11748164_a_at) / Fold change /veh VCAN (11748164_a_at) / RFU JSRP1 (11732532_at) / Fold change /veh JSRP1 (11732532_at) / RFU KRTAP10-11 (11738290_x_at) / Fold change /veh KRTAP10-11 (11738290_x_at) / RFU MYO3A (11730013_a_at) / Fold change /veh MYO3A (11730013_a_at) / RFU EBF3 (11725865_a_at) / Fold change /veh EBF3 (11725865_a_at) / RFU CAMK2N1 (11719241_x_at) / Fold change /veh CAMK2N1 (11719241_x_at) / RFU C5orf56 (11738088_a_at) / Fold change /veh C5orf56 (11738088_a_at) / RFU OLFML3 (11715873_a_at) / Fold change /veh OLFML3 (11715873_a_at) / RFU LOC100653217 /// NTM (11731650_a_at) / Fold change /veh LOC100653217 /// NTM (11731650_a_at) / RFU MAPK11 (11762145_a_at) / Fold change /veh MAPK11 (11762145_a_at) / RFU FIZ1 (11724087_x_at) / Fold change /veh FIZ1 (11724087_x_at) / RFU OASL (11726364_x_at) / Fold change /veh OASL (11726364_x_at) / RFU SOX15 (11748057_x_at) / Fold change /veh SOX15 (11748057_x_at) / RFU CD79A (11719716_a_at) / Fold change /veh CD79A (11719716_a_at) / RFU HIST1H1D (11736915_at) / Fold change /veh HIST1H1D (11736915_at) / RFU CASKIN2 (11723855_a_at) / Fold change /veh CASKIN2 (11723855_a_at) / RFU LOC730098 (11760151_x_at) / Fold change /veh LOC730098 (11760151_x_at) / RFU OR4N2 (11742367_at) / Fold change /veh OR4N2 (11742367_at) / RFU PRRT2 (11749266_a_at) / Fold change /veh PRRT2 (11749266_a_at) / RFU SNX32 (11753110_a_at) / Fold change /veh SNX32 (11753110_a_at) / RFU CDHR5 (11726645_a_at) / Fold change /veh CDHR5 (11726645_a_at) / RFU RCAN1 (11760418_a_at) / Fold change /veh RCAN1 (11760418_a_at) / RFU FAM167A (11723789_a_at) / Fold change /veh FAM167A (11723789_a_at) / RFU FAM26E (11764081_at) / Fold change /veh FAM26E (11764081_at) / RFU ISYNA1 (11749810_s_at) / Fold change /veh ISYNA1 (11749810_s_at) / RFU ACY1 (11761880_at) / Fold change /veh ACY1 (11761880_at) / RFU 11764098_at / Fold change /veh 11764098_at / RFU SAMD14 (11745864_x_at) / Fold change /veh SAMD14 (11745864_x_at) / RFU NPB (11741838_a_at) / Fold change /veh NPB (11741838_a_at) / RFU TMPRSS6 (11731388_a_at) / Fold change /veh TMPRSS6 (11731388_a_at) / RFU KRTAP10-2 (11738614_at) / Fold change /veh KRTAP10-2 (11738614_at) / RFU ARHGAP8 /// PRR5-ARHGAP8 (11727945_x_at) / Fold change /veh ARHGAP8 /// PRR5-ARHGAP8 (11727945_x_at) / RFU KRTAP5-7 /// NADSYN1 (11734609_at) / Fold change /veh KRTAP5-7 /// NADSYN1 (11734609_at) / RFU RASL12 (11751679_a_at) / Fold change /veh RASL12 (11751679_a_at) / RFU CDKN2B (11736163_a_at) / Fold change /veh CDKN2B (11736163_a_at) / RFU PRF1 (11729649_at) / Fold change /veh PRF1 (11729649_at) / RFU, ZNF638 /// ZNF638-IT1 / Fold change vs veh, ZNF638 /// ZNF638-IT1 / RFU, PANK3 / Fold change vs veh, PANK3 / RFU, SH3YL1 / Fold change vs veh, SH3YL1 / RFU, ZEB2 / Fold change vs veh, ZEB2 / RFU, NRIP1 / Fold change vs veh, NRIP1 / RFU, PTTG1IP / Fold change vs veh, PTTG1IP / RFU, CAPN2 / Fold change vs veh, CAPN2 / RFU, MED14 / Fold change vs veh, MED14 / RFU, SNORA58 / Fold change vs veh, SNORA58 / RFU, C1orf63 / Fold change vs veh, C1orf63 / RFU, LRRFIP1 / Fold change vs veh, LRRFIP1 / RFU, NDUFAF7 / Fold change vs veh, NDUFAF7 / RFU, SLC12A2 / Fold change vs veh, SLC12A2 / RFU, IBTK / Fold change vs veh, IBTK / RFU, ESF1 / Fold change vs veh, ESF1 / Fold change vs veh, TMEM50B / RFU, TAOK1 / Fold change vs veh, TAOK1 / RFU, ACBD3 / Fold change vs veh, ACBD3 / RFU, TMA16 / Fold change vs veh, TMA16 / RFU, RWDD3 / Fold change vs veh, RWDD3 / RFU, BCAT1 / Fold change vs veh, BCAT1 / RFU, EDEM3 / Fold change vs veh, EDEM3 / RFU, TMEM33 / Fold change vs veh, TMEM33 / RFU, WDR75 / Fold change vs veh, WDR75 / RFU, AHCTF1 / Fold change vs veh, AHCTF1 / RFU, TFRC / Fold change vs veh, TFRC / RFU, ZDHHC17 / Fold change vs veh, ZDHHC17 / RFU, NOM1 / Fold change vs veh, NOM1 / RFU, ARL8B / Fold change vs veh, ARL8B / RFU, ZBTB11 / Fold change vs veh, ZBTB11 / RFU, TAMM41 / Fold change vs veh, TAMM41 / RFU, KIAA1704 /// LOC100996395 / Fold change vs veh, KIAA1704 /// LOC100996395 / RFU, ING1 / Fold change vs veh, ING1 / RFU, TRMT61B / Fold change vs veh, TRMT61B / RFU, FUBP3 / Fold change vs veh, FUBP3 / RFU, TP53 / Fold change vs veh, TP53 / RFU, TNKS2 / Fold change vs veh, TNKS2 / RFU, ZFP14 / Fold change vs veh, ZFP14 / RFU, ACTR2 / Fold change vs veh, ACTR2 / RFU, PPP3R1 / Fold change vs veh, PPP3R1 / RFU, PIK3R1 / Fold change vs veh, PIK3R1 / RFU, HNRNPA1 / Fold change vs veh, HNRNPA1 / RFU, RNF170 / Fold change vs veh, RNF170 / RFU, ZNF28 / Fold change vs veh, ZNF28 / RFU, RNGTT / Fold change vs veh, RNGTT / RFU, OGT / Fold change vs veh, OGT / RFU, BRD1 / Fold change vs veh, BRD1 / RFU, MARS / Fold change vs veh, MARS / RFU, ZNF655 / Fold change vs veh, ZNF655 / RFU, FAHD1 / Fold change vs veh, FAHD1 / RFU, BDP1 / Fold change vs veh, BDP1 / RFU, LRRCC1 / Fold change vs veh, LRRCC1 / RFU, ARID1A / Fold change vs veh, ARID1A / RFU, ZNF146 / Fold change vs veh, ZNF146 / RFU, ZNF330 / Fold change vs veh, ZNF330 / RFU, GPN3 / Fold change vs veh, GPN3 / RFU, C9orf123 / Fold change vs veh, C9orf123 / RFU, N4BP2L2 / Fold change vs veh, N4BP2L2 / RFU, ARFIP1 / Fold change vs veh, ARFIP1 / RFU, FAM179B / Fold change vs veh, FAM179B / RFU, BCL10 / Fold change vs veh, BCL10 / RFU, UHRF1BP1L / Fold change vs veh, UHRF1BP1L / RFU, BET1 / Fold change vs veh, BET1 / RFU, CNOT2 / Fold change vs veh, CNOT2 / RFU, ZNF268 / Fold change vs veh, ZNF268 / Fold change vs veh, ZNF507 / RFU, DGCR2 / Fold change vs veh, DGCR2 / RFU, WDSUB1 / Fold change vs veh, WDSUB1 / Fold change vs veh, HSP90B1 /// MIR3652 / RFU, ADSS / Fold change vs veh, ADSS / RFU, GK / Fold change vs veh, GK / RFU, ZNF148 / Fold change vs veh, ZNF148 / RFU, TAF9 / Fold change vs veh, TAF9 / RFU, SLC1A5 / Fold change vs veh, SLC1A5 / RFU, SLMO2 / Fold change vs veh, SLMO2 / RFU, ABCC4 / Fold change vs veh, ABCC4 / RFU, LOC101060439 /// RAP1B / Fold change vs veh, LOC101060439 /// RAP1B / RFU, RFX7 / Fold change vs veh, RFX7 / RFU, GTPBP10 / Fold change vs veh, GTPBP10 / RFU, CNEP1R1 / Fold change vs veh, CNEP1R1 / RFU, BIVM-ERCC5 /// ERCC5 / Fold change vs veh, BIVM-ERCC5 /// ERCC5 / RFU, ILF3 / Fold change vs veh, ILF3 / RFU 11762660_at / Fold change /veh 11762660_at / RFU VCAN (11757783_s_at) / Fold change /veh VCAN (11757783_s_at) / RFU DDX43 (11728927_at) / Fold change /veh DDX43 (11728927_at) / RFU KRT8 (11758188_x_at) / Fold change /veh KRT8 (11758188_x_at) / RFU NKD1 (11759106_at) / Fold change /veh NKD1 (11759106_at) / RFU SRD5A1 (11742802_a_at) / Fold change /veh SRD5A1 (11742802_a_at) / RFU TPSAB1 /// TPSB2 (11721975_s_at) / Fold change /veh TPSAB1 /// TPSB2 (11721975_s_at) / RFU GSTM3 (11746129_a_at) / Fold change /veh GSTM3 (11746129_a_at) / RFU IL23R (11737362_x_at) / Fold change /veh IL23R (11737362_x_at) / RFU TMEM51 (11727254_a_at) / Fold change /veh TMEM51 (11727254_a_at) / RFU PIWIL2 (11732686_x_at) / Fold change /veh PIWIL2 (11732686_x_at) / RFU ORM1 (11744905_x_at) / Fold change /veh ORM1 (11744905_x_at) / RFU CCDC152 (11743942_at) / Fold change /veh CCDC152 (11743942_at) / RFU ECM1 (11717891_a_at) / Fold change /veh ECM1 (11717891_a_at) / RFU IL23R (11748794_a_at) / Fold change /veh IL23R (11748794_a_at) / RFU TNFAIP8L3 (11732012_x_at) / Fold change /veh TNFAIP8L3 (11732012_x_at) / RFU MBOAT4 (11741988_at) / Fold change /veh MBOAT4 (11741988_at) / RFU 11764193_at / Fold change /veh 11764193_at / RFU TMEM53 (11763286_at) / Fold change /veh TMEM53 (11763286_at) / RFU MAGEB2 (11727129_at) / Fold change /veh MAGEB2 (11727129_at) / RFU TMEM200A (11744735_a_at) / Fold change /veh TMEM200A (11744735_a_at) / RFU CCDC152 (11751479_a_at) / Fold change /veh CCDC152 (11751479_a_at) / RFU FAM211A (11726209_a_at) / Fold change /veh FAM211A (11726209_a_at) / RFU RGS16 (11746705_a_at) / Fold change /veh RGS16 (11746705_a_at) / RFU VCAN (11755009_s_at) / Fold change /veh VCAN (11755009_s_at) / RFU RHOB (11743442_s_at) / Fold change /veh RHOB (11743442_s_at) / RFU RGS16 (11720943_a_at) / Fold change /veh RGS16 (11720943_a_at) / RFU RGS16 (11720944_at) / Fold change /veh RGS16 (11720944_at) / RFU, VPS4B / Fold change vs veh, VPS4B / RFU, CREB1 / Fold change vs veh, CREB1 / RFU, DNAJC13 / Fold change vs veh, DNAJC13 / RFU, GNAQ / Fold change vs veh, GNAQ / RFU, CDK5R1 / Fold change vs veh, CDK5R1 / RFU, ZRANB3 / Fold change vs veh, ZRANB3 / RFU, CUL4A / Fold change vs veh, CUL4A / RFU, CCNY / Fold change vs veh, CCNY / RFU, UFL1 / Fold change vs veh, UFL1 / RFU, COG3 / Fold change vs veh, COG3 / RFU, DIAPH2 / Fold change vs veh, DIAPH2 / RFU, SKA2 / Fold change vs veh, SKA2 / RFU, AFF3 / Fold change vs veh, AFF3 / RFU, LMF1 / Fold change vs veh, LMF1 / RFU, IPO11 / Fold change vs veh, IPO11 / RFU, DFFB / Fold change vs veh, DFFB / RFU, FOXP1 / Fold change vs veh, FOXP1 / RFU, CARD8 / Fold change vs veh, CARD8 / RFU, STRN3 / Fold change vs veh, STRN3 / RFU, ADK / Fold change vs veh, ADK / RFU, RASSF2 / Fold change vs veh, RASSF2 / RFU, WIPF1 / Fold change vs veh, WIPF1 / RFU, LARP1B / Fold change vs veh, LARP1B / RFU, RASA1 / Fold change vs veh, RASA1 / RFU, RB1 / Fold change vs veh, RB1 / RFU, PPFIA1 / Fold change vs veh, PPFIA1 / RFU, MAT2A / Fold change vs veh, MAT2A / RFU, CCT5 / Fold change vs veh, CCT5 / RFU, WDR92 / Fold change vs veh, WDR92 / RFU, CUX1 / Fold change vs veh, CUX1 / RFU, TTC7A / Fold change vs veh, TTC7A / RFU, TMEM135 / Fold change vs veh, TMEM135 / RFU, DEPTOR / Fold change vs veh, DEPTOR / RFU, CPM / Fold change vs veh, CPM / RFU, DNAJB6 / Fold change vs veh, DNAJB6 / RFU, CACNA2D3 / Fold change vs veh, CACNA2D3 / RFU, DTX4 / Fold change vs veh, DTX4 / RFU, TFCP2 / Fold change vs veh, TFCP2 / RFU, GMCL1 /// GMCL1P1 / Fold change vs veh, GMCL1 /// GMCL1P1 / RFU, AEBP2 / Fold change vs veh, AEBP2 / RFU, SNHG1 /// SNORD22 /// SNORD25 /// SNORD26 /// SNORD27 /// SNORD28 /// SNORD29 /// SNORD31 / Fold change vs veh, SNHG1 /// SNORD22 /// SNORD25 /// SNORD26 /// SNORD27 /// SNORD28 /// SNORD29 /// SNORD31 / Fold change (Aza/veh), C12orf56 (ProbeSet 11735607_a_at) / Fold change (ACY-1035/veh), C12orf56 (ProbeSet 11735607_a_at) / Fold change (Aza/veh), FGFR1OP (ProbeSet 11751329_s_at) / Fold change (ACY-1035/veh), FGFR1OP (ProbeSet 11751329_s_at) / Fold change (Aza/veh), VPS36 (ProbeSet 11739960_a_at) / Fold change (ACY-1035/veh), VPS36 (ProbeSet 11739960_a_at) / RFU SYPL1 (11715823_x_at) / Fold change /veh SYPL1 (11715823_x_at) / RFU IGFBP7 (11715501_s_at) / Fold change /veh IGFBP7 (11715501_s_at) / RFU REEP3 (11722064_at) / Fold change /veh REEP3 (11722064_at) / RFU IGLL1 (11728026_x_at) / Fold change /veh IGLL1 (11728026_x_at): dose or concentration left out as unconfirmed. In kind it is cell-based, human. To be noted: MV-4-11 cells, 48 hours.

As to `Nc1ncn([C@@H]2O[C@H](CO)[C@@H](O)[C@H]2O)c(=O)n1` [azacitidine], the “RFU FAM167A (11723789_a_at)” value is 38.83 RFU.
